# Target: T1, sucrase-isomaltase (SI) (Mus musculus, UniProt B5THE3)
# T1 construct: cABPP in mouse intestine homogenates; from tissue; host or cells: duodenum of wild type mice
# Assay: competitive ABPP in mouse intestine homogenates, SI
# Assay type: biochemical
# Settings: mouse duodenum extracts; 0-100 μM; 30 min 37 °C
# Experimental: Inhibition of gastrointestinal α-glucosidases with antidiabetic drugs has been related to undesired effects, including flatulence, diarrhea, and abdominal pain. Cyclosulfamidate 4 inhibits SI and MGAM but does so about a 100-fold less potently than it inhibits rhGAA or GANAB, and we conclude that it has a more beneficial therapeutic window in this regard compared to NB-DNJ 2.
# Figure 2 Competitive ABPP (cABPP) in mouse intestine homogenates. […]
# After preincubation, 25 μL of E+I mixture was added to a 96 wells plate and 100 μL substrate solution in the appropriate buffer was subsequently added. GAA activity was measured using final concentrations of 47 nM enzyme (Myozyme) and 3.0 mM 4-MU-α-D-glucopyranoside, for 30 minutes at 37 ℃. GANAB activity was measured using wt fibroblasts and 2.4 mM 4-MU-α-D-glucopyranoside, for 2 h at 37 ℃. GBA1 activity was measured using final concentrations of 0.7 nM enzyme (Cerezyme) and 3.0 mM 4-methylumbeliferone(4-MU)-β-D-glucopyranoside, for 30 min at 37 ℃. GBA2 residual activity was measured using cellular homogenates of HEK293T over-expressing GBA2 pre-incubated for 30 min with a GBA1 inhibitor (1 µM 37 (ME656), see Figure S1 for chemical structure), and further incubation with 3.0 mM 4-methylumbeliferone(4MU)-β-D-glucopyranoside […]
# T1 sequence (B5THE3 1-1818): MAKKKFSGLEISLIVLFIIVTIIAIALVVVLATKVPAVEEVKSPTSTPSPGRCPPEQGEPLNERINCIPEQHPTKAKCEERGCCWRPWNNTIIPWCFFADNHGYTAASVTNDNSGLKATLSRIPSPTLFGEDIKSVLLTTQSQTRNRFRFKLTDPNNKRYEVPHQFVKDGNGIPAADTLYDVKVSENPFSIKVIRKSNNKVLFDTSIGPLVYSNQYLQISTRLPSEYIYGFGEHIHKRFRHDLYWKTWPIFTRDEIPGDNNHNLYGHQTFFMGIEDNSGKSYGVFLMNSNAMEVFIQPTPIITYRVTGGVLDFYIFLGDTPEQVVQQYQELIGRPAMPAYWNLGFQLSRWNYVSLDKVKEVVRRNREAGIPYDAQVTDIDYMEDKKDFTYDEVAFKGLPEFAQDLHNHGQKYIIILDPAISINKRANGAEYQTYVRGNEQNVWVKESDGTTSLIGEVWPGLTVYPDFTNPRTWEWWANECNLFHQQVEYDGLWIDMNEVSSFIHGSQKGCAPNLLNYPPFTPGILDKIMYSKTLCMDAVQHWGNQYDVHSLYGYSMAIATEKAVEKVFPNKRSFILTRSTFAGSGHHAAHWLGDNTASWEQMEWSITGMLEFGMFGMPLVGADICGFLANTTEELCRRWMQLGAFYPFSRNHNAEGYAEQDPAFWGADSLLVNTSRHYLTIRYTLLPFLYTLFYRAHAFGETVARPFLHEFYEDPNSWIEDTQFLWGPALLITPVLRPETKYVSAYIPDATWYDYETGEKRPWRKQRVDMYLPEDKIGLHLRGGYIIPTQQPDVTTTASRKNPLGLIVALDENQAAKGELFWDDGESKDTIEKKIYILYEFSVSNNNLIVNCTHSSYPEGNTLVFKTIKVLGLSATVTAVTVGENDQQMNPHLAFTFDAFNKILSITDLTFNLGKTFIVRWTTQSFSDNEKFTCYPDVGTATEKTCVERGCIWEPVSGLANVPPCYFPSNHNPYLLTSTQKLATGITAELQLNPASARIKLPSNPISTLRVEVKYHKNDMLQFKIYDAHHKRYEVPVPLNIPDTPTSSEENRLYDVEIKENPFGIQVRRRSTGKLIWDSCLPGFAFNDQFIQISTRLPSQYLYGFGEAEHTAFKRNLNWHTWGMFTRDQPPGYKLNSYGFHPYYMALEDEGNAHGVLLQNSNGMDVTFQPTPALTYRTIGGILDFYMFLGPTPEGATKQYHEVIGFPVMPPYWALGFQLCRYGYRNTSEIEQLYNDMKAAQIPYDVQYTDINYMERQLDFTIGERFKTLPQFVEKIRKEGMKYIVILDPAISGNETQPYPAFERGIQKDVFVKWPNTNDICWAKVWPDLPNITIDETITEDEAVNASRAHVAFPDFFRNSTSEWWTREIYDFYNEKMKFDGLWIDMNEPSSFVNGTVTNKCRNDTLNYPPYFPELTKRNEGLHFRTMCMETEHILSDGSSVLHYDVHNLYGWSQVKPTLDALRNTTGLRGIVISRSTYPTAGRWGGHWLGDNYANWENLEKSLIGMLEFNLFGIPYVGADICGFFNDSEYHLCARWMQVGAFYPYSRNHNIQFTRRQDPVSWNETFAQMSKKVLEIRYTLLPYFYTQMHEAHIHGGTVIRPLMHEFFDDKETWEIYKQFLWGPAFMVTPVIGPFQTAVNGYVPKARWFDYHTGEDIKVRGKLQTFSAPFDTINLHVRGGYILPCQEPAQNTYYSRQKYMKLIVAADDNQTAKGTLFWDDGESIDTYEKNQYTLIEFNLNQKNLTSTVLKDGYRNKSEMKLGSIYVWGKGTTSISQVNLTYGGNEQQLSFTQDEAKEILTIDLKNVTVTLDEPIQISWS
structure (smiles),measurement,value
"O=S1(=O)N[C@@H]2[C@H](O)[C@@H](O)[C@H](O)[C@@H](CO)[C@@H]2O1 [compound 4, 1,6-epi-cyclophellitol cyclosulfamidate]","inhibition of SI by cABPP, in words",inhibit

# Reference: publication PMC9389588, “1,6-epi-Cyclophellitol Cyclosulfamidate Is a Bona Fide Lysosomal α-Glucosidase Stabilizer for the Treatment of Pompe Disease” (Journal of the American Chemical Society, 2022)
